In patent US20140242093A1, “METHODS AND COMPOSITIONS FOR MODULATING THE INNATE IMMUNE RESPONSE AND/OR MYOGENESIS IN A MAMMALIAN SUBJECT” (FRED HUTCHINSON CANCER RESEARCH CENTER, priority 2011, published 2014):

Test system: human genome (hg18)
Assay: ChIP-Seq of DUX4 binding sites in transduced primary myoblasts
Conditions: for max.cov (peak height): non-repeat binding site
Experimental: Non-redundant reads unambiguously mapped to the human genome were computationally extended to a total length of 200 nucleotides and “peaks” were defined as regions where the number of reads was higher than a statistical threshold compared to the background, as described below. Reads mapping to the X and Y chromosomes were excluded from the analysis.
ChIP was performed and ChIP DNA samples were prepared as previously described in Cao et al., Dev. Cell 18:662-674 (2010), hereby incorporated herein by reference. […] Anti-DUX4 N-terminus polyclonal antibodies FH106 and FH107 were combined to immunoprecipitate DUX4-s. The samples were sequenced with Illumina Genome Analyzer II.
Sequences were extracted by Illumina package GApipeline and reads were aligned using BWA to the human genome (hg18). The inventors only kept one of the duplicated sequences to minimize the artifacts of PCR amplification. Each read was extended in the sequencing orientation to a total of 200 bases to infer the coverage at each genomic position. Peak calling was performed by a house developed R package “peakSig” (pending submission to Bioconductor), which model background reads by a negative binomial distribution. The negative binomial distribution can be viewed as a continuous mixture of Poisson distribution where the mixing distribution of the Poisson rate is modeled as a Gamma prior. This prior distribution is used to capture the variation of background reads density across the genome. Model parameters were estimated by fitting the truncated distribution on the number of bases with low coverage (one to three), to avoid the problem of inferring effective genome size excluding the non-mappable regions, and to eliminate contamination of any foreground signals in the high coverage regions. The inventors also fit a GC dependent mixture model so that the significance of the peaks is determined not only by peak height, but also by the GC content of the neighboring genomic regions.
Discriminative motif discovery was carried out as described in Palii et al. (2011), in which motifs were identified that distinguish a positive and a negative sequence dataset, which in this study, the positive sequences correspond to Dux4 binding sites and negative sequences correspond to the randomly sampled flanking regions of Dux4 binding sites. To generate more accurate presentation of the Dux4 binding sites from the consensus pattern returned by this analysis, the inventors tried to learn a positional weight matrix (PWM) model, using the matches of the consensus pattern as the seed to initialize the iterative expectation-maximization (EM) refinement process similar to MEME. If appropriate, the motifs are extended iteratively as long as there is sequence preference in the flanking region, and refined in the same EM process.
The inventors associated a peak to its closest TSS within the region flanked by CTCF binding sites, which were identified in a ChIP-seq experiment on human CD4+ T cells (GEO accession number GSE12889/GSM325895).

[1] = repeat family DNA/TcMar-Mariner
[2] = repeat family DNA/hAT-Blackjack

DUX4-fl: full-length DUX4 protein (SEQ ID NO:110), expressed from lentiviral or pCS2 vectors or in vitro translated
enrichment of binding in the MaLR family of retrotransposons: ~10 fold
share of sequences under the peaks with a second larger (LTR) motif: Approximately 30%
number of ChIP-Seq peaks (P-value threshold 10^−10, background peaks subtracted): 62,028 peaks
number of ChIP-Seq peaks (P-value threshold 10^−15, background peaks subtracted): 39,737 peaks
share of peaks with motif TAAYBBAATCA near the center (de novo motif analysis): greater than 90%
max.cov (peak height) (AVPI1, chr10, dist2tss 126): 56
max.cov (peak height) (BZW2, chr7, dist2tss 1939): 63
max.cov (peak height) (BZW2, chr7, dist2tss 1955): 86
max.cov (peak height) (C1orf63, chr1, dist2tss −1326): 132
max.cov (peak height) (C6orf191, chr6, dist2tss 61): 250
max.cov (peak height) (C14orf102, chr14, dist2tss −558): 159
max.cov (peak height) (C14orf138, chr14, dist2tss 326): 53
max.cov (peak height) (C14orf138, chr14, dist2tss −4696): 50
max.cov (peak height) (C21orf91, chr21, dist2tss −803): 274
max.cov (peak height) (CBARA1, chr10, dist2tss 2340): 70
max.cov (peak height) (CBARA1, chr10, dist2tss 4786): 250
max.cov (peak height) (CCNA1, chr13, dist2tss 1874): 58
max.cov (peak height) (CCNA1, chr13, dist2tss −2425): 56
max.cov (peak height) (CCNJ, chr10, dist2tss −637): 265
max.cov (peak height) (CLDN14, chr21, dist2tss −2523): 96
max.cov (peak height) (CLK1, chr2, dist2tss 4634): 163
max.cov (peak height) (CSE1L, chr20, dist2tss −1935): 57
max.cov (peak height) (CSE1L, chr20, dist2tss −5914): 53
max.cov (peak height) (CTNNAL1, chr9, dist2tss 641): 198
max.cov (peak height) (CTR9, chr11, dist2tss 1913): 46
max.cov (peak height) (DBR1, chr3, dist2tss 3981): 117
max.cov (peak height) (DDX47, chr12, dist2tss −4416): 55
max.cov (peak height) (DEFB103A, chr8, dist2tss −2289): 55
max.cov (peak height) (DENND2C, chr1, dist2tss −3169): 116
max.cov (peak height) (EGLN1, chr1, dist2tss −1): 205
max.cov (peak height) (EXOSC10, chr1, dist2tss 150): 139
max.cov (peak height) (FAM90A1, chr12, dist2tss −1597): 129
max.cov (peak height) (FBXO33, chr14, dist2tss −2226): 117
max.cov (peak height) (FRG2B, chr10, dist2tss 598): 200
max.cov (peak height) (GPBAR1, chr2, dist2tss −224): 150
max.cov (peak height) (GTF2F1, chr19, dist2tss 134): 83
max.cov (peak height) (HOXB2, chr17, dist2tss −2471): 283
max.cov (peak height) (JUP, chr17, dist2tss −701): 177
max.cov (peak height) (KDM5B, chr1, dist2tss 301): 93
max.cov (peak height) (KIF21A, chr12, dist2tss −1030): 37
max.cov (peak height) (KIF21A, chr12, dist2tss −4249): 73
max.cov (peak height) (MAPKAP1, chr9, dist2tss 3619): 153
max.cov (peak height) (MAPKAP1, chr9, dist2tss −4397): 69
max.cov (peak height) (MAST4, chr5, dist2tss −1253): 269
max.cov (peak height) (MED13, chr17, dist2tss −2755): 43
max.cov (peak height) (NANS, chr9, dist2tss 1843): 85
max.cov (peak height) (NFYA, chr6, dist2tss 49): 159
max.cov (peak height) (PABPN1, chr14, dist2tss −529): 257
max.cov (peak height) (PANX2, chr22, dist2tss −2040): 118
max.cov (peak height) (PELI1, chr2, dist2tss 4936): 85
max.cov (peak height) (PNP, chr14, dist2tss −104): 344
max.cov (peak height) (PPP2R2B, chr5, dist2tss 2498): 91
max.cov (peak height) (PRAMEF12, chr1, dist2tss −1230): 99
max.cov (peak height) (PRPF18, chr10, dist2tss 3230): 57
max.cov (peak height) (PRR4, chr12, dist2tss 83): 54
max.cov (peak height) (PTP4A1, chr6, dist2tss −2227): 105
max.cov (peak height) (PVRL3, chr3, dist2tss 2678): 51
max.cov (peak height) (RBBP6, chr16, dist2tss −1619): 76
max.cov (peak height) (RBBP6, chr16, dist2tss −1922): 323
max.cov (peak height) (RBBP6, chr16, dist2tss −4040): 46
max.cov (peak height) (RFPL1, chr22, dist2tss −3042): 124
max.cov (peak height) (RFPL2, chr22, dist2tss 3057): 129
max.cov (peak height) (RFPL2, chr22, dist2tss −2853): 118
max.cov (peak height) (RFPL4B, chr6, dist2tss −321): 232
max.cov (peak height) (RTN4, chr2, dist2tss 1853): 115
max.cov (peak height) (RTN4, chr2, dist2tss −2562): 52
max.cov (peak height) (SAMD8, chr10, dist2tss 3338): 43
max.cov (peak height) (SEC61A2, chr10, dist2tss −1861): 172
max.cov (peak height) (SFRS2B, chr11, dist2tss 42): 373
max.cov (peak height) (SH3GL2, chr9, dist2tss −4600): 88
max.cov (peak height) (SIAH1, chr16, dist2tss −2337): 118
max.cov (peak height) (SNAI1, chr20, dist2tss 769): 62
max.cov (peak height) (SON, chr21, dist2tss −2951): 244
max.cov (peak height) (SPRYD5, chr11, dist2tss −2855): 133
max.cov (peak height) (SPTY2D1, chr11, dist2tss 5934): 74
max.cov (peak height) (SPTY2D1, chr11, dist2tss −797): 105
max.cov (peak height) (SRRT, chr7, dist2tss 1546): 128
max.cov (peak height) (SYNJ1, chr21, dist2tss −766): 229
max.cov (peak height) (TAF4B, chr18, dist2tss −1741): 65
max.cov (peak height) (TFIP11, chr22, dist2tss −1353): 234
max.cov (peak height) (TRIM43, chr2, dist2tss 1385): 47
max.cov (peak height) (TRIM43, chr2, dist2tss −5584): 85
max.cov (peak height) (TRIM48, chr11, dist2tss −151): 178
max.cov (peak height) (TRIM49L1, chr11, dist2tss 200): 85
max.cov (peak height) (TRIM49L2, chr11, dist2tss −202): 109
max.cov (peak height) (USP29, chr19, dist2tss 2090): 104
max.cov (peak height) (USP29, chr19, dist2tss 3676): 66
max.cov (peak height) (ZNF217, chr20, dist2tss 3546): 122
max.cov (peak height) (ZNF217, chr20, dist2tss −2168): 55
max.cov (peak height) (ZNF296, chr19, dist2tss 182): 110
max.cov (peak height) (ZNF705A, chr12, dist2tss −5106): 224
max.cov (peak height) (ZSCAN4, chr19, dist2tss 1430): 364
max.cov (peak height) (ZSCAN5B, chr19, dist2tss 4892): 89
max.cov (peak height) (ZSCAN5B, chr19, dist2tss −4101): 67
max.cov (peak height) (ZSCAN5B, chr19, dist2tss −5014): 98
max.cov (peak height) (hCG_1651160, chr7, dist2tss −192): 215
max.cov (peak height) (hCG_1651160, chr7, dist2tss −892): 114
DUX4-fl Binding Prevalence (fraction of all DUX4-fl peaks) [1]: 0.00105
DUX4-fl Enrichment (binding prevalence/overall genome prevalence) [1]: 1.14
DUX4-fl Binding Prevalence (fraction of all DUX4-fl peaks) (repeat family DNA/TcMar-Tigger): 0.0124
DUX4-fl Enrichment (binding prevalence/overall genome prevalence) (repeat family DNA/TcMar-Tigger): 1.11
DUX4-fl Binding Prevalence (fraction of all DUX4-fl peaks) [2]: 0.00064
DUX4-fl Enrichment (binding prevalence/overall genome prevalence) [2]: 0.57
DUX4-fl Binding Prevalence (fraction of all DUX4-fl peaks) (repeat family DNA/hAT-Charlie): 0.00761
DUX4-fl Enrichment (binding prevalence/overall genome prevalence) (repeat family DNA/hAT-Charlie): 0.51
DUX4-fl Binding Prevalence (fraction of all DUX4-fl peaks) (repeat family DNA/hAT-Tip100): 0.00098
DUX4-fl Enrichment (binding prevalence/overall genome prevalence) (repeat family DNA/hAT-Tip100): 0.45
DUX4-fl Binding Prevalence (fraction of all DUX4-fl peaks) (repeat family DNA/hAT?): 0.00016
DUX4-fl Enrichment (binding prevalence/overall genome prevalence) (repeat family DNA/hAT?): 0.94
DUX4-fl Binding Prevalence (fraction of all DUX4-fl peaks) (repeat family LINE/CR1): 0.00356
DUX4-fl Enrichment (binding prevalence/overall genome prevalence) (repeat family LINE/CR1): 1.00
DUX4-fl Binding Prevalence (fraction of all DUX4-fl peaks) (repeat family LINE/L1): 0.0938
DUX4-fl Enrichment (binding prevalence/overall genome prevalence) (repeat family LINE/L1): 0.58
DUX4-fl Binding Prevalence (fraction of all DUX4-fl peaks) (repeat family LINE/L2): 0.02978
DUX4-fl Enrichment (binding prevalence/overall genome prevalence) (repeat family LINE/L2): 0.86
DUX4-fl Binding Prevalence (fraction of all DUX4-fl peaks) (repeat family LTR/ERV): 0.00032
DUX4-fl Enrichment (binding prevalence/overall genome prevalence) (repeat family LTR/ERV): 5.33
DUX4-fl Binding Prevalence (fraction of all DUX4-fl peaks) (repeat family LTR/ERV1): 0.01878
DUX4-fl Enrichment (binding prevalence/overall genome prevalence) (repeat family LTR/ERV1): 0.72
DUX4-fl Binding Prevalence (fraction of all DUX4-fl peaks) (repeat family LTR/ERVK): 0.00803
DUX4-fl Enrichment (binding prevalence/overall genome prevalence) (repeat family LTR/ERVK): 2.97
DUX4-fl Binding Prevalence (fraction of all DUX4-fl peaks) (repeat family LTR/ERVL): 0.04558
DUX4-fl Enrichment (binding prevalence/overall genome prevalence) (repeat family LTR/ERVL): 2.50
DUX4-fl Binding Prevalence (fraction of all DUX4-fl peaks) (repeat family LTR/ERVL-MaLR): 0.3572
DUX4-fl Enrichment (binding prevalence/overall genome prevalence) (repeat family LTR/ERVL-MaLR): 9.92
DUX4-fl Binding Prevalence (fraction of all DUX4-fl peaks) (repeat family LTR/Gypsy): 0.00081
DUX4-fl Enrichment (binding prevalence/overall genome prevalence) (repeat family LTR/Gypsy): 1.07
DUX4-fl Binding Prevalence (fraction of all DUX4-fl peaks) (repeat family SINE/Alu): 0.00777
DUX4-fl Enrichment (binding prevalence/overall genome prevalence) (repeat family SINE/Alu): 0.08
DUX4-fl Binding Prevalence (fraction of all DUX4-fl peaks) (repeat family SINE/MIR): 0.02317
DUX4-fl Enrichment (binding prevalence/overall genome prevalence) (repeat family SINE/MIR): 0.82
DUX4-fl Binding Prevalence (fraction of all DUX4-fl peaks) (repeat family SINE/tRNA): 0.00011
DUX4-fl Enrichment (binding prevalence/overall genome prevalence) (repeat family SINE/tRNA): 1.57
DUX4-fl Binding Prevalence (fraction of all DUX4-fl peaks) (repeat family Satellite): 0.00068
DUX4-fl Enrichment (binding prevalence/overall genome prevalence) (repeat family Satellite): 0.66
DUX4-fl Binding Prevalence (fraction of all DUX4-fl peaks) (repeat family Satellite/centr): 0.00047
DUX4-fl Enrichment (binding prevalence/overall genome prevalence) (repeat family Satellite/centr): 0.19
DUX4-fl Binding Prevalence (fraction of all DUX4-fl peaks) (repeat family Simple_repeat): 0.00442
DUX4-fl Enrichment (binding prevalence/overall genome prevalence) (repeat family Simple_repeat): 0.53
DUX4-fl Binding Prevalence (fraction of all DUX4-fl peaks) (repeat family Unknown): 0.00063
DUX4-fl Enrichment (binding prevalence/overall genome prevalence) (repeat family Unknown): 1.47
DUX4-fl Binding Prevalence (fraction of all DUX4-fl peaks) (repeat family rRNA): 1.00E−04
DUX4-fl Enrichment (binding prevalence/overall genome prevalence) (repeat family rRNA): 1.67
